Measured values from patent US20110224291A1, “SKIN EXTERNAL COMPOSITION FOR INHIBITING EPIDERMAL HYPERPROLIFERATION AND ALLEVIATING INFLAMMATORY SKIN DISEASES CONTAINING ORTHODIHYDROXYISOFLAVONE DERIVATIVES” (priority 2008, published 2011).

What was measured:
[1] = system: Dickkopf homolog 3 (DKK3); experiment: DKK3 expression in keratinocytes by Q-RT-PCR; assay type: cell-based; conditions: human neonatal keratinocyte cells, 10 μM, 24 hours, FIG. 2
Description: (§1) Human neonatal keratinocyte cells purchased from Welskin Co (Seoul, Korea) were subcultured in a 25 cm^2 T-flask and incubated in a CO2 incubator under conditions of 37° C. and 5% CO2. Generally, the experiment was carried out after the cells have been subcultured for 2-3 passages. According to the method of Lonza, Inc. (Walkersville, Md., USA), the medium used in the cell culture was prepared by adding a KGM-2 bullet kit (bovine pituitary extract (2 mg), human epidermal growth factor (0.5 ml), insulin (0.5 ml), hydrocortisone (0.5 mg), transferrin (0.5 mg), epinephrine (0.5 mg), and gentamicin sulfate+amphotericin-B (GA-1000, 0.5 ml)) to 500 ml of KBM-2 medium (Clonetics CC-3103). When a confluence of about 50% was shown 2 days after the subculture of the cells, the serum was starved. After 24 hours, the cells were treated with 10 μM of each of a negative control, an Angelica gigas Nakai extract (positive control), daidzein and Examples 1-6 for 24 hours. […]
(§2) Then, RNA of the cells was isolated using Trizol reagent (Invitrogen, Carlsbad, Calif., USA). The isolated RNA was purified with Qiagen RNeasy kit (Qiagen, Valencia, Calif.), and then the quality of the RNA was confirmed using the Agilent 2100 Bio-Analyzer (Agilent Technologies, Santa Clara, Calif., USA). cDNA was synthesized from the RNA using a superscript reverse transcriptase (RT) kit (Invitrogen, Carlsbad, Calif.) and was quantitatively analyzed through a real time-reverse transcription polymerase chain reaction (Q-RT-PCR). The changes in the expression patterns of genes in the keratinocyte cells were analyzed using the TaqMan®gene expression assay kit (Applied Biosystems, Foster City, Calif.), Dickkopf homolog 3 (DKK3)-HS00247426_m1, and Frizzled homolog 1 (FZD1)-HS00268943_s1 (TagMan primer catalog name), thus confirming the expression levels of DKK3 and FZD1.

[2] = system: Frizzled homolog 1 (FZD1); experiment: FZD1 expression in keratinocytes by Q-RT-PCR; assay type: cell-based; conditions: human neonatal keratinocyte cells, 10 μM, 24 hours, FIG. 3
Description: as §1, §2

[3] = system: TNF-alpha; experiment: Anti-inflammatory effect: TNF-alpha gene expression in LPS-treated HaCaT cells; assay type: cell-based, human; conditions: 10 μM pretreatment 2 hours, 1 μg/ml LPS 8 hours, mRNA normalized to GAPDH, FIG. 4
Description: In this Example, human keratinocyte HaCaT cells obtained from the Korean Cell Line Bank (Seoul, Korea) were used. The HaCaT cells were seeded into a DMEM medium containing 10% (v/v) FBS, 100 U/ml penicillin and 100 μg/ml streptomycin and were incubated in an animal cell incubator under conditions of 37° C. and 5% CO2. The HaCaT cells prepared at 1.5×10^6 cells/well were adapted in FBS-free medium for 3 hours. The cells were pretreated with 10 μM of each of 4′,6,7-trihydroxyisoflavone, 3′,4′,7-trihydroxyisoflavone, daidzein and TGZ for 2 hours, 1 μg/ml of lipopolysaccharide (LPS) was added thereto, and then the cells were additionally cultured for 8 hours. Total RNA of the cells was extracted using TRIzol™ (GIBCO BRL, MD, USA) and stored at −80° C. 1 μg of the total RNA was added to 25 μl of a reverse transcription reaction buffer containing 50 mM Tris-HCl (pH 8.3), 75 mM KCl, 3 mM MgCl2, 0.1 M DTT, 10 mM dNTP and 40 U/μl RNase inhibitor. 0.5 μg/μl oligo(dT)16 primers and 200 U SuperScript per Script II reverse transcriptase (GiboBRL) were added thereto, and the total RNA was subjected to a reverse transcription reaction at 42° C. for 1 hour. Then, 2.5 μl of the reverse transcription reaction solution was added to […] of a PCR reaction buffer containing 0.04 U AmpliTaq DNA polymerase (Perkin Elmer, Shelton, Conn.), 50 mM Tris-HCl (pH 8.3), 0.25 mg/ml bovine serum albumin, 3 mM MgCl2, 0.25 mM dNTPs and a 1/50,000 dilution of SYBR green I (Molecular Probes, Eugene, Oreg.), and 10 μM primers were added thereto. Then, a PCR reaction was subjected to PCR amplification. The PCR reaction consisted of 30 cycles of denaturation at 94° C. for 30 sec, annealing at 53° C. for 30 sec and extension at 72° C. for 1 min. The relative mRNA levels were analyzed by measuring the change in fluorescence of SYBR green I using ICycler software. As an internal standard, GAPDH (glyceraldehyde 3-phosphate dehydrogenase) was used to normalize the quantitative expression level of the gene TNF-alpha.

[4] = system: Human keratinocyte HaCaT cells; experiment: Keratinocyte division inhibition, BrdU colorimetric ELISA; assay type: cell-based; conditions: HaCaT cells, 1, 10 and 50 μM, 48 hours, BrdU analysis, FIG. 1; for keratinocyte division-inhibiting effect: compared with daidzein
Description: Human keratinocyte HaCaT cells were added to 10% fetal bovine serum-containing DMEM medium [Dulbecco's modified Eagle's Medium; Gibco 1210-0038] and cultured in a 24-well plate at a confluence of 70%. The HaCaT cells were treated with 1, 10 and 50 μM of each of 4′,6,7-trihydroxyisoflavone and 3′,4′,7-trihydroxyisoflavone, and after 48 hours, subjected to BrdU analysis. At 12 hours before the BrdU analysis was carried out, BrdU labeling was carried out. The BrdU analysis was carried out using a BrdU colorimetric ELISA kit (Roche) according to the manufacturer's instruction. First, the culture broth was treated with BrdU solution for 12 hours, and then the medium was removed. The cells were fixed, and a peroxidase-conjugated BrdU antibody was added thereto, after which the cells were treated with a substrate solution to induce color development. The degree of color development was measured with an ELISA reader. As positive controls, calcium known to be used for the differentiation of keratinocytes, and troglitazone (TGZ) known to inhibit cell division and induce cell differentiation were used.

| SMILES | expression level of DKK3 [1] | expression level of FZD1 [2] | expression of the TNF-alpha gene [3] | concentration dependence of inhibition of keratinocyte division [4] | keratinocyte division-inhibiting effect [4] |
| --- | --- | --- | --- | --- | --- |
| O=c1c(-c2ccc(O)cc2)coc2cc(O)ccc12 [daidzein, reference compound] | significantly lower than those in the groups treated with the ortho-dihydroxyisoflavone derivatives | significantly lower than those in the groups treated with the ortho-dihydroxyisoflavone derivatives | slightly inhibited | – | – |
| O=c1c(-c2ccc(O)c(O)c2)coc2cc(O)ccc12 [3′,4′,7-trihydroxyisoflavone] | effectively promoted the expression | effectively promoted the expression | strongly inhibited | concentration-dependent manner | significantly superior to that of daidzein |
| O=c1c(-c2ccc(O)cc2)coc2cc(O)c(O)cc12 [4′,6,7-trihydroxyisoflavone] | effectively promoted the expression | effectively promoted the expression | strongly inhibited | concentration-dependent manner | significantly superior to that of daidzein |
